Test results reported in US11439660B2, “Antimicrobial poly(alkylated imidazolium) salts” (NANYANG TECHNOLOGICAL UNIVERSITY, priority 2017, dated 2022).

Assays:
[1] = tested on: PAER (carbapenem-resistant Pseudomonas aeruginosa, CRPA); conditions: imipenem control, 2 mg/kg, 3 doses
Experimental: In another study, mice (5 per group) were treated with varied doses of PIM 1 at 1 h, 4 h and 8 h post-infection with PAO1. Positive and negative control groups of mice were injected with 2 mg/kg of imipenem and same volume of PBS respectively, at the same time point. At the 12th hour, all mice were euthanized with peritoneal washes performed via injecting 3.0 mL of PBS into the intraperitoneal cavity followed by massaging the abdomen for 1 min. After which, approximately 1 mL of peritoneal fluid was recovered to calculating the CFU of bacteria, as well as for immune cells quantification.
For carbapenem-resistant Acinetobacter baumannii (CRAB) and carbapenem-resistant Pseudomonas aeruginosa (CRPA) septicemia protection model, similar procedure was conducted with care and 5% mucin was injected together with the bacteria to have the mice immunocompromised (resulting in similar conditions as hospitalised patients).

[2] = tested on: AB-1 (carbapenem-resistant Acinetobacter baumannii, CRAB); conditions: imipenem control, 2 mg/kg × 3 doses
Experimental: In another study, mice (5 per group) were treated with varied doses of PIM 1 at 1 h, 4 h and 8 h post-infection with PAO1. Positive and negative control groups of mice were injected with 2 mg/kg of imipenem and same volume of PBS respectively, at the same time point. At the 12th hour, all mice were euthanized with peritoneal washes performed via injecting 3.0 mL of PBS into the intraperitoneal cavity followed by massaging the abdomen for 1 min. After which, approximately 1 mL of peritoneal fluid was recovered to calculating the CFU of bacteria, as well as for immune cells quantification. Bacterial loads were also evaluated in the spleen, liver and kidneys of the animals.
For carbapenem-resistant Acinetobacter baumannii (CRAB) and carbapenem-resistant Pseudomonas aeruginosa (CRPA) septicemia protection model, similar procedure was conducted with care and 5% mucin was injected together with the bacteria to have the mice immunocompromised (resulting in similar conditions as hospitalised patients). The amount of bacteria was analysed with one-way classification analysis of variance (ANOVA) and student's t-test (Graphpad Prism for Windows, version 7).

[3] = tested on: SA29213; format: cell-based, S. aureus; conditions: serial passaging at sub-MIC levels, 21 days
Experimental: Aliquots of the bacteria at various time points were stored in glycerol and kept at −80° C. for further study whenever resistance development was observed. Ofloxacin was used as the positive control.

[4] = tested on: PAO1; assay: Mouse septicemia model, survival; format: in vivo; conditions: 1 mg/kg IP at 0.5 h, 4 h and 8 h post-infection; monitored over 7 days
Experimental: Given the excellent bacteria killing properties and biocompatibility of PIM 1 chloride, the therapeutic efficacy of this polymer was tested in vivo using a mouse septicemia model (FIG. 13). Balb/c female mice (7 weeks with one week quarantine) were used to test the PAO1 septic shock protection efficacy of PIM 1. Exponential phase of PAO1 was collected and washed twice with PBS, and re-suspended in the same volume of PBS. 300 μL of cell suspension containing 3×10^7 CFU of PAO1 was introduced into each mouse via intraperitoneal injection to induce septic shock. […] The survival rate of the mice was monitored over 7 days.

`C[C@@H](O)[C@H]1C(=O)N2C(C(=O)O)=C(SCCN=CN)C[C@H]12` [imipenem] was tested, and the “reduction in the population of CRPA in the intraperitoneal fluid (in words)” value [1] was “no reduction” and the “removal of AB-1 from the peritoneal fluid (in words)” value [2] was “did not show any removal”.

With `CC1COc2c(N3CCN(C)CC3)c(F)cc3c(=O)c(C(=O)O)cn1c23` (stereo not shown) [ofloxacin] the resistance evolution [3] was “above 128 MIC fold change”.

colistin showed a survival rate [4] of 80%.
